This note sets out measurements from ChEMBL document CHEMBL1137575, “Target specific virtual screening: optimization of an estrogen receptor screening platform” (J Med Chem, 2007).

For orientation: IC50 means the concentration that gives 50% inhibition.

Molecules are shown by their SMILES. Calls of active or inactive are those of the source. The rule behind the calls is not given here.

In experiment [1] the test system is MCF7. In words: Antiproliferative activity against MCF7 cells after 72 hrs by MTT assay. Format: functional, Homo sapiens. A general note: Tetrazolium dyes change colour on reduction, which living cells bring about.
The test system of experiment [2] is MCF7. In words: Cytotoxicity against MCF7 cells after 72 hrs by LDH assay. In kind it is functional, cell-based. As to conditions: Homo sapiens.
In experiment [3] the target is Estrogen receptor beta (Homo sapiens, UniProt Q92731). In words: Displacement of fluoromone from human recombinant ERbeta by fluorescence polarization assay.
For experiment [4], the species on record is Homo sapiens. In words: Selectivity for ERalpha over ERbeta.
For experiment [5], the target named is T1, Estrogen receptor (Homo sapiens, UniProt P03372).
T1 sequence (P03372 whole entry): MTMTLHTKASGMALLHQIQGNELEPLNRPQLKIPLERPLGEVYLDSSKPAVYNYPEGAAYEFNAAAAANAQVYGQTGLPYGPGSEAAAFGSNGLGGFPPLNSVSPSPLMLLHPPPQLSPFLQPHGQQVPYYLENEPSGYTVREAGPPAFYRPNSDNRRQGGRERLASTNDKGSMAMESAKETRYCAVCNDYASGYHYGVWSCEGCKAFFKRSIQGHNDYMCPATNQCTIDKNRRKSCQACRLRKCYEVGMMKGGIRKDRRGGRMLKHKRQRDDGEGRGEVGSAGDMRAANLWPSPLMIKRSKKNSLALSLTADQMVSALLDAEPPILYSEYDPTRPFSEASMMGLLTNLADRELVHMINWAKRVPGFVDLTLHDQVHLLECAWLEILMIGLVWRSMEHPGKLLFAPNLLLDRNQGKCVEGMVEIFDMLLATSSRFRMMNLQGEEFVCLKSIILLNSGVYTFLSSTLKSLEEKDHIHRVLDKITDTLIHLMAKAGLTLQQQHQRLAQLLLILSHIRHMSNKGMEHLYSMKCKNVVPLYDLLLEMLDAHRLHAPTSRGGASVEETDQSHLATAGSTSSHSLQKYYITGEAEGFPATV
In words: Displacement of fluoromone from human recombinant ERalpha by fluorescence polarization assay.

Sequence of Estrogen receptor beta (Q92731 whole entry): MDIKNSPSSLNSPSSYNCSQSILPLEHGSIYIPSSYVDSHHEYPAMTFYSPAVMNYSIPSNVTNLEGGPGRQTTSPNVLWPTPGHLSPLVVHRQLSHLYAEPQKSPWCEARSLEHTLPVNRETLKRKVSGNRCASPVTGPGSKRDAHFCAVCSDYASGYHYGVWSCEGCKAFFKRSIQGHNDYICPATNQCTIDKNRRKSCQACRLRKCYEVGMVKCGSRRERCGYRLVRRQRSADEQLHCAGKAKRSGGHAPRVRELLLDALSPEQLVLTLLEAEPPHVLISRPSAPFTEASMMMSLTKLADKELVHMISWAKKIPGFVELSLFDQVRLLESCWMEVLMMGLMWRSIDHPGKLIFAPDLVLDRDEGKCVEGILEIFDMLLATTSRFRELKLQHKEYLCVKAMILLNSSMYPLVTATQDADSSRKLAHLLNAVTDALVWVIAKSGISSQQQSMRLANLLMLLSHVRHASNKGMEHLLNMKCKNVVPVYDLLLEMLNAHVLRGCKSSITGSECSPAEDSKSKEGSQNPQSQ

Consider `COC(=O)C1=C(N)Oc2cc(O)ccc2C1c1ccc(OCc2ccc(C)cc2)cc1` (stereo unspecified), for which the Activity in experiment [1] came to 7 µM. In experiment [2], the outcome was Active. Besides, the IC50 in experiment [3] turned out to be 915 nM; in experiment [5], 56 nM. In experiment [4], the Ratio IC50 stood at 17.
Consider `COc1cc(C2Nc3ccccc3C(=O)N2Cc2ccccc2)ccc1O` (stereo unspecified), for which the Activity in experiment [1] is 15 µM. In addition, the outcome in experiment [2] was Active. The IC50 in experiment [3] was 6200 nM; in experiment [5] it was 1100 nM. In addition, in experiment [4], the Ratio IC50 came to 4.4.
In the case of `COC(=O)C1=C(N)Oc2cc(O)ccc2C1c1ccc(OCc2ccccc2F)cc1` (stereo unspecified), the Activity in experiment [1] is 11.4 µM. The result in experiment [2] was Active. In addition, the figures for the IC50 in experiment [3] and in experiment [5] were 780 nM and 53 nM, respectively. In experiment [4], the Ratio IC50 amounted to 13.7.
`CC/C(=C(\c1ccccc1)c1ccc(OCCN(C)C)cc1)c1ccccc1` [TAMOXIFEN]: in experiment [1], the Activity worked out at 4.6 µM.
